From PubChem BioAssay AID2060607 (Molecular Pharmacology Branch, DTP, NCI, 2025)

System: 876862-298-R-J1-PDC complex spheroids, viability % test/control
Assay: Anticancer human tumor 876862-298-R-J1-PDC patient-derived endometrial carcinoma cell line growth inhibition [CLK]
Details: for IC50: curve of first compound; for viability, T/C: stronger effect = lower value
Outline: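 Multi-cell-type spheroids combined patient-derived tumor cells with HUVEC endothelial cells and human mesenchymal stem cells. Paired agents were dosed in half-log steps down from about clinical Cmax, or from 10 microM where Cmax was unknown.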

[1] = second compound 0.0316 µM, first compound 0.0316 µM
[2] = second compound 0.0316 µM, first compound 0.1 µM
[3] = second compound 0.0316 µM, first compound 0.316 µM
[4] = second compound 0.0316 µM, first compound 1 µM
[5] = second compound 0.0316 µM, first compound 3.16 µM
[6] = second compound 0.0316 µM, first compound 10 µM
[7] = second compound 0.1 µM, first compound 0.0316 µM
[8] = second compound 0.1 µM, first compound 0.1 µM
[9] = second compound 0.1 µM, first compound 0.316 µM
[10] = second compound 0.1 µM, first compound 1 µM
[11] = second compound 0.1 µM, first compound 3.16 µM
[12] = second compound 0.1 µM, first compound 10 µM
[13] = second compound 0.316 µM, first compound 0.0316 µM
[14] = second compound 0.316 µM, first compound 0.1 µM
[15] = second compound 0.316 µM, first compound 0.316 µM
[16] = second compound 0.316 µM, first compound 1 µM
[17] = second compound 0.316 µM, first compound 3.16 µM
[18] = second compound 0.316 µM, first compound 10 µM
[19] = second compound 1 µM, first compound 0.0316 µM
[20] = second compound 1 µM, first compound 0.1 µM
[21] = second compound 1 µM, first compound 0.316 µM
[22] = second compound 1 µM, first compound 1 µM
[23] = second compound 1 µM, first compound 3.16 µM
[24] = second compound 1 µM, first compound 10 µM
[25] = second compound 3.16 µM, first compound 0.0316 µM
[26] = second compound 3.16 µM, first compound 0.1 µM
[27] = second compound 3.16 µM, first compound 0.316 µM
[28] = second compound 3.16 µM, first compound 1 µM
[29] = second compound 3.16 µM, first compound 3.16 µM
[30] = second compound 3.16 µM, first compound 10 µM
[31] = second compound 10 µM, first compound 0.0316 µM
[32] = second compound 10 µM, first compound 0.1 µM
[33] = second compound 10 µM, first compound 0.316 µM
[34] = second compound 10 µM, first compound 1 µM
[35] = second compound 10 µM, first compound 3.16 µM
[36] = second compound 10 µM, first compound 10 µM
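Note: spheroids exposed to drugs for 7 days before readout.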
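Throughout, for viability, T/C: 100% = DMSO vehicle control wells.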

SMILES: CC1(C)CCC(CN2CCN(c3ccc(C(=O)NS(=O)(=O)c4ccc(NCC5CCOCC5)c([N+](=O)[O-])c4)c(Oc4cnc5[nH]ccc5c4)c3)CC2)=C(c2ccc(Cl)cc2)C1 + CN1CCN(c2cc(C(=O)Nc3cc4cc(-c5cnn(C)c5)ccc4cn3)ccn2)CC1
- IC50 (second compound 0.0316 µM): 5740 nM
- IC50 (second compound 0.1 µM): < 31.6 nM
- IC50 (second compound 0.316 µM): < 31.6 nM
- IC50 (second compound 1 µM): < 31.6 nM
- IC50 (second compound 3.16 µM): < 31.6 nM
- IC50 (second compound 10 µM): < 31.6 nM
- viability, T/C [1]: 95%
- viability, T/C [2]: 89.1%
- viability, T/C [3]: 90.4%
- viability, T/C [4]: 89.2%
- viability, T/C [5]: 94.7%
- viability, T/C [6]: 11.1%
- viability, T/C [7]: 52.3%
- viability, T/C [8]: 47.5%
- viability, T/C [9]: 45.5%
- viability, T/C [10]: 46.1%
- viability, T/C [11]: 43.8%
- viability, T/C [12]: 3.97%
- viability, T/C [13]: 2.64%
- viability, T/C [14]: 2.13%
- viability, T/C [15]: 2.43%
- viability, T/C [16]: 2.21%
- viability, T/C [17]: 1.34%
- viability, T/C [18]: 0.56%
- viability, T/C [19]: 0.41%
- viability, T/C [20]: 1.28%
- viability, T/C [21]: 0.52%
- viability, T/C [22]: 0.24%
- viability, T/C [23]: 0.22%
- viability, T/C [24]: 0.53%
- viability, T/C [25]: 0.68%
- viability, T/C [26]: 0.51%
- viability, T/C [27]: 0.52%
- viability, T/C [28]: 0.34%
- viability, T/C [29]: 0.16%
- viability, T/C [30]: 0.09%
- viability, T/C [31]: 0.38%
- viability, T/C [32]: 0.67%
- viability, T/C [33]: 0.34%
- viability, T/C [34]: 0.45%
- viability, T/C [35]: 0.19%
- viability, T/C [36]: 1.19%

SMILES: CC1COCCN1c1cc(C2(S(C)(=N)=O)CC2)nc(-c2ccnc3[nH]ccc23)n1 (stereo not drawn) + CN1CCN(c2cc(C(=O)Nc3cc4cc(-c5cnn(C)c5)ccc4cn3)ccn2)CC1
- IC50 (second compound 0.0316 µM): 2100 nM
- IC50 (second compound 0.1 µM): < 31.6 nM
- IC50 (second compound 0.316 µM): < 31.6 nM
- IC50 (second compound 1 µM): < 31.6 nM
- IC50 (second compound 3.16 µM): < 31.6 nM
- IC50 (second compound 10 µM): < 31.6 nM
- viability, T/C [1]: 89.1%
- viability, T/C [2]: 87.5%
- viability, T/C [3]: 76.5%
- viability, T/C [4]: 62.1%
- viability, T/C [5]: 43.6%
- viability, T/C [6]: 17.9%
- viability, T/C [7]: 45.1%
- viability, T/C [8]: 51.9%
- viability, T/C [9]: 38.9%
- viability, T/C [10]: 33.6%
- viability, T/C [11]: 18.4%
- viability, T/C [12]: 7.47%
- viability, T/C [13]: 2.43%
- viability, T/C [14]: 2.03%
- viability, T/C [15]: 2.19%
- viability, T/C [16]: 2.32%
- viability, T/C [17]: 2.12%
- viability, T/C [18]: 1.33%
- viability, T/C [19]: 0.64%
- viability, T/C [20]: 0.83%
- viability, T/C [21]: 0.8%
- viability, T/C [22]: 0.51%
- viability, T/C [23]: 0.47%
- viability, T/C [24]: 0.27%
- viability, T/C [25]: 0.98%
- viability, T/C [26]: 1.82%
- viability, T/C [27]: 0.92%
- viability, T/C [28]: 0.81%
- viability, T/C [29]: 0.61%
- viability, T/C [30]: 0.4%
- viability, T/C [31]: 0.94%
- viability, T/C [32]: 0.66%
- viability, T/C [33]: 1.4%
- viability, T/C [34]: 0.63%
- viability, T/C [35]: 0.59%
- viability, T/C [36]: 0.74%

SMILES: NC(=O)C(=Cn1cnc(-c2cc(C(F)(F)F)cc(C(F)(F)F)c2)n1)c1cncnc1 + CN1CCN(c2cc(C(=O)Nc3cc4cc(-c5cnn(C)c5)ccc4cn3)ccn2)CC1
- IC50 (second compound 0.0316 µM): 29.4 nM
- IC50 (second compound 0.1 µM): < 9.49 nM
- IC50 (second compound 0.316 µM): < 9.49 nM
- IC50 (second compound 1 µM): < 9.49 nM
- IC50 (second compound 3.16 µM): < 9.49 nM
- IC50 (second compound 10 µM): < 9.49 nM
- viability, T/C (second compound 0.0316 µM, first compound 0.00949 µM): 67.5%
- viability, T/C (second compound 0.0316 µM, first compound 0.03 µM): 49.3%
- viability, T/C (second compound 0.0316 µM, first compound 0.0949 µM): 33%
- viability, T/C (second compound 0.0316 µM, first compound 0.3 µM): 24.1%
- viability, T/C (second compound 0.0316 µM, first compound 0.949 µM): 11.3%
- viability, T/C (second compound 0.0316 µM, first compound 3 µM): 2.88%
- viability, T/C (second compound 0.1 µM, first compound 0.00949 µM): 38.5%
- viability, T/C (second compound 0.1 µM, first compound 0.03 µM): 30.8%
- viability, T/C (second compound 0.1 µM, first compound 0.0949 µM): 21.1%
- viability, T/C (second compound 0.1 µM, first compound 0.3 µM): 4.49%
- viability, T/C (second compound 0.1 µM, first compound 0.949 µM): 0.38%
- viability, T/C (second compound 0.1 µM, first compound 3 µM): 0.99%
- viability, T/C (second compound 0.316 µM, first compound 0.00949 µM): 1.38%
- viability, T/C (second compound 0.316 µM, first compound 0.03 µM): 0.32%
- viability, T/C (second compound 0.316 µM, first compound 0.0949 µM): 0.86%
- viability, T/C (second compound 0.316 µM, first compound 0.3 µM): 0.98%
- viability, T/C (second compound 0.316 µM, first compound 0.949 µM): 0.83%
- viability, T/C (second compound 0.316 µM, first compound 3 µM): 1.69%
- viability, T/C (second compound 1 µM, first compound 0.00949 µM): 0.33%
- viability, T/C (second compound 1 µM, first compound 0.03 µM): 0.27%
- viability, T/C (second compound 1 µM, first compound 0.0949 µM): 0.22%
- viability, T/C (second compound 1 µM, first compound 0.3 µM): 0.36%
- viability, T/C (second compound 1 µM, first compound 0.949 µM): 0.45%
- viability, T/C (second compound 1 µM, first compound 3 µM): 1.17%
- viability, T/C (second compound 3.16 µM, first compound 0.00949 µM): 0.3%
- viability, T/C (second compound 3.16 µM, first compound 0.03 µM): 1.41%
- viability, T/C (second compound 3.16 µM, first compound 0.0949 µM): 0.93%
- viability, T/C (second compound 3.16 µM, first compound 0.3 µM): 0.82%
- viability, T/C (second compound 3.16 µM, first compound 0.949 µM): 1.14%
- viability, T/C (second compound 3.16 µM, first compound 3 µM): 1.63%
- viability, T/C (second compound 10 µM, first compound 0.00949 µM): 1.33%
- viability, T/C (second compound 10 µM, first compound 0.03 µM): 1.7%
- viability, T/C (second compound 10 µM, first compound 0.0949 µM): 1.02%
- viability, T/C (second compound 10 µM, first compound 0.3 µM): 1.05%
- viability, T/C (second compound 10 µM, first compound 0.949 µM): 1.22%
- viability, T/C (second compound 10 µM, first compound 3 µM): 1.15%

SMILES: Nc1ccccc1NC(=O)c1ccc(CNC(=O)OCc2cccnc2)cc1 + CN1CCN(c2cc(C(=O)Nc3cc4cc(-c5cnn(C)c5)ccc4cn3)ccn2)CC1
- IC50 (second compound 0.0316 µM): 4010 nM
- IC50 (second compound 0.1 µM): < 31.6 nM
- IC50 (second compound 0.316 µM): < 31.6 nM
- IC50 (second compound 1 µM): < 31.6 nM
- IC50 (second compound 3.16 µM): < 31.6 nM
- IC50 (second compound 10 µM): < 31.6 nM
- viability, T/C [1]: 86.8%
- viability, T/C [2]: 95.2%
- viability, T/C [3]: 81.9%
- viability, T/C [4]: 83.9%
- viability, T/C [5]: 54.9%
- viability, T/C [6]: 30.6%
- viability, T/C [7]: 48.5%
- viability, T/C [8]: 48.5%
- viability, T/C [9]: 40.9%
- viability, T/C [10]: 34.1%
- viability, T/C [11]: 15.7%
- viability, T/C [12]: 3.34%
- viability, T/C [13]: 2.84%
- viability, T/C [14]: 1.59%
- viability, T/C [15]: 1.03%
- viability, T/C [16]: 0.37%
- viability, T/C [17]: 0.85%
- viability, T/C [18]: 0.12%
- viability, T/C [19]: 0.89%
- viability, T/C [20]: 1.78%
- viability, T/C [21]: 1.05%
- viability, T/C [22]: 0.95%
- viability, T/C [23]: 1.68%
- viability, T/C [24]: 1.65%
- viability, T/C [25]: 1.22%
- viability, T/C [26]: 1.55%
- viability, T/C [27]: 1.06%
- viability, T/C [28]: 1.89%
- viability, T/C [29]: 2.98%
- viability, T/C [30]: 3.09%
- viability, T/C [31]: 0.79%
- viability, T/C [32]: 1.03%
- viability, T/C [33]: 2.17%
- viability, T/C [34]: 1.89%
- viability, T/C [35]: 3.24%
- viability, T/C [36]: 1.78%
